Experimental findings from PubChem BioAssay AID330 (DTP/NCI, 2004) are described below.

The assay deals with P388 leukemia ip, CD2F1 mice, survival T/C. Put plainly: NCI In Vivo Anticancer Drug Screen. Data for tumor model P388 Leukemia (intraperitoneal) in CD2F1 (CDF1) mice. Particulars: endpoint: median survival time, higher = longer survival. A digest of the protocol:
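Mice carrying the transplanted tumor received test compound or vehicle. Survival was recorded in each group, and the value is the treated-group measurement divided by that of the vehicle-treated control group.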

The mark [1] stands for this setting: dose: 50.0 mg/kg/injection, schedule: Q04DX003 (ip), vehicle: saline.
Where [2] appears, read: dose: 6.25 mg/kg/injection, schedule: Q01DX009 (ip), vehicle: Klucel (hydroxypropylcellulose) (HPC).
[3] abbreviates: dose: 12.5 mg/kg/injection, schedule: Q01DX009 (ip), vehicle: Klucel (hydroxypropylcellulose) (HPC).
Where [4] appears, read: dose: 25.0 mg/kg/injection, schedule: Q01DX009 (ip), vehicle: Klucel (hydroxypropylcellulose) (HPC).
Where [5] appears, read: dose: 60.0 mg/kg/injection, schedule: Q01DX005 (ip), vehicle: Klucel + Tween-80.
The mark [6] stands for this setting: dose: 120.0 mg/kg/injection, schedule: Q01DX005 (ip), vehicle: Klucel + Tween-80.
Where [7] appears, read: dose: 240.0 mg/kg/injection, schedule: Q01DX005 (ip), vehicle: Klucel + Tween-80.
Setting [8] is: dose: 25.0 mg/kg/injection, schedule: Q01DX009 (ip), vehicle: water.

Values joined by “and” are separate entries in the source; they are usually repeats but may differ in a detail not shown here. Equal entries are not always repeated. Inconclusive results and toxic doses are left out.

Regarding `COP(=S)(OC)Oc1cc(Cl)c(Cl)cc1Cl`, the T/C runs as follows: under setting [1], 100 % of control; (dose: 100.0 mg/kg/injection, schedule: Q04DX003 (ip), vehicle: saline) 102 % of control; (dose: 200.0 mg/kg/injection, schedule: Q04DX003 (ip), vehicle: saline) 103 % of control; (dose: 400.0 mg/kg/injection, schedule: Q04DX003 (ip), vehicle: saline) 102 % of control.

On to `CC(=O)OC1OC(/C=N\N(C)C)C(OCc2ccccc2)C(OCc2ccccc2)C1OC(C)=O` (centres undefined), for which the T/C is, setting by setting: (dose: 3.12 mg/kg/injection, schedule: Q01DX005 (ip), vehicle: Klucel (hydroxypropylcellulose) (HPC)) 95 % of control; (dose: 6.25 mg/kg/injection, schedule: Q01DX005 (ip), vehicle: Klucel (hydroxypropylcellulose) (HPC)) 97 % of control; under setting [2], 104 % of control; (dose: 12.5 mg/kg/injection, schedule: Q01DX005 (ip), vehicle: Klucel (hydroxypropylcellulose) (HPC)) 94 % of control; under setting [3], 92 % of control; under setting [4], 92 % of control. Moreover, the T/C by setting is: (dose: 25.0 mg/kg/injection, schedule: Q01DX009 (ip), vehicle: other) 92 % of control; (dose: 50.0 mg/kg/injection, schedule: Q01DX009 (ip), vehicle: other) 88 % of control; (dose: 100.0 mg/kg/injection, schedule: Q01DX009 (ip), vehicle: other) 94 % of control; (dose: 200.0 mg/kg/injection, schedule: Q01DX009 (ip), vehicle: other) 89 % of control.

Take `C=CCNC(=S)N\N=C/C(/C=C/c1ccccc1)=N\NC(=S)NCC=C`: the T/C (dose: 100.0 mg/kg/injection, schedule: Q04DX002 (ip), vehicle: Klucel (hydroxypropylcellulose) (HPC)) is 103 % of control; the T/C (dose: 200.0 mg/kg/injection, schedule: Q04DX002 (ip), vehicle: Klucel (hydroxypropylcellulose) (HPC)) is 91 % of control; the T/C (dose: 400.0 mg/kg/injection, schedule: Q04DX002 (ip), vehicle: Klucel (hydroxypropylcellulose) (HPC)) was 91 % of control.

Regarding `CN1CC[N+](C)(Cc2ccc(C[N+]3(C)CC[N+](C)(Cc4ccc(CCl)cc4)CC3)cc2)CC1` (centres undefined), the T/C (dose: 12.5 mg/kg/injection, schedule: Q04DX003 (ip), vehicle: saline) was 112 % of control; the T/C (dose: 25.0 mg/kg/injection, schedule: Q04DX003 (ip), vehicle: saline) is 102 % of control; the T/C under setting [1] was 119 % of control.

On to `NC1=NC(=O)N2CC12` (centres undefined), for which the T/C reads like this: (dose: 50.0 mg/kg/injection, schedule: Q01DX009 (ip), vehicle: saline) 122 % of control; (dose: 100.0 mg/kg/injection, schedule: Q01DX009 (ip), vehicle: saline) 153 % of control and 158 % of control; (dose: 200.0 mg/kg/injection, schedule: Q01DX009 (ip), vehicle: saline) 100 % of control.

Take `COCC1(C)CCCC2(C)C3=C(CCC(OC)C3)CCC12` (centres undefined): the T/C runs as follows: (dose: 100.0 mg/kg/injection, schedule: Q01DX001 (ip), vehicle: saline) 99 % of control; (dose: 200.0 mg/kg/injection, schedule: Q01DX001 (ip), vehicle: saline) 96 % of control; (dose: 400.0 mg/kg/injection, schedule: Q01DX001 (ip), vehicle: saline) 93 % of control.

As to `Cc1ccc(S(=O)(=O)N2C(=N)C(=S)N(C)C2=O)cc1`, the T/C under setting [5] was 101 % of control, the T/C under setting [6] was 111 % of control and the T/C under setting [7] was 114 % of control.

Turning to `CC12CC3(C)CC(C)(C1)CC(C(Cl)C(=O)O)(C2)C3` (centres undefined), the T/C (dose: 25.0 mg/kg/injection, schedule: Q01DX009 (ip), vehicle: suspension in saline) is 98 % of control and the T/C (dose: 50.0 mg/kg/injection, schedule: Q01DX009 (ip), vehicle: suspension in saline) was 100 % of control.

Take `CC(CCC(=O)O)(c1ccc(OC(=O)Nc2cccc([N+](=O)[O-])c2)cc1)c1ccc(OC(=O)Nc2cccc([N+](=O)[O-])c2)cc1`: the T/C by setting is: (dose: 50.0 mg/kg/injection, schedule: Q01DX005 (ip), vehicle: saline with Tween-80) 98 % of control; (dose: 100.0 mg/kg/injection, schedule: Q01DX005 (ip), vehicle: saline with Tween-80) 91 % of control.

As for `Nc1c(Cl)cc(C(=O)O)cc1Cl`, the T/C was 95 % of control (dose: 25.0 mg/kg/injection, schedule: Q01DX009 (ip), vehicle: saline with Tween-80); 90 % of control (dose: 50.0 mg/kg/injection, schedule: Q01DX009 (ip), vehicle: saline with Tween-80); 87 % of control (dose: 100.0 mg/kg/injection, schedule: Q01DX009 (ip), vehicle: saline with Tween-80); 100 % of control (dose: 200.0 mg/kg/injection, schedule: Q01DX009 (ip), vehicle: saline with Tween-80).

Take `CCCCc1ccc(Nc2c(C(=O)O)cnc3cc4c(cc23)OCO4)cc1`: the T/C under setting [5] was 103 % of control, the T/C under setting [6] was 100 % of control and the T/C under setting [7] was 97 % of control.

In the case of `Cc1ccc2cccc(C(=O)N(C)C)c2[n+]1C`, the T/C (dose: 31.2 micrograms/kg/injection, schedule: Q04DX002 (ip), vehicle: saline) is 100 % of control and the T/C (dose: 62.5 micrograms/kg/injection, schedule: Q04DX002 (ip), vehicle: saline) was 103 % of control.

Consider `O=C(CCSCCC(=O)N/N=C/C(O)C(O)C(O)CO)N/N=C/C(O)C(O)C(O)CO` (centres undefined), for which the T/C is 103 % of control and 97 % of control (dose: 50.0 mg/kg/injection, schedule: Q01DX005 (ip), vehicle: Klucel (hydroxypropylcellulose) (HPC)); 99 % of control and 94 % of control (dose: 100.0 mg/kg/injection, schedule: Q01DX005 (ip), vehicle: Klucel (hydroxypropylcellulose) (HPC)); 99 % of control and 95 % of control (dose: 200.0 mg/kg/injection, schedule: Q01DX005 (ip), vehicle: Klucel (hydroxypropylcellulose) (HPC)).

Regarding `N#Cc1cccc(CN2CCCNCC2)c1`, the T/C is 94 % of control (dose: 6.25 mg/kg/injection, schedule: Q01DX009 (ip), vehicle: water); 94 % of control (dose: 12.5 mg/kg/injection, schedule: Q01DX009 (ip), vehicle: water); 103 % of control under setting [8]; 109 % of control (dose: 50.0 mg/kg/injection, schedule: Q01DX009 (ip), vehicle: water); 105 % of control (dose: 100.0 mg/kg/injection, schedule: Q01DX009 (ip), vehicle: water).

Regarding `CC(C)(C)c1cc(/C=N/n2c(-c3ccccc3)nc3ccccc3c2=O)cc(C(C)(C)C)c1O`, the T/C is, setting by setting: (dose: 60.0 mg/kg/injection, schedule: Q01DX005 (ip), vehicle: Klucel (hydroxypropylcellulose) (HPC)) 98 % of control; (dose: 120.0 mg/kg/injection, schedule: Q01DX005 (ip), vehicle: Klucel (hydroxypropylcellulose) (HPC)) 97 % of control; (dose: 240.0 mg/kg/injection, schedule: Q01DX005 (ip), vehicle: Klucel (hydroxypropylcellulose) (HPC)) 90 % of control.

`Cc1c(O)c2c(c(O)c1Cc1cccc(CN)c1)C(=O)c1ccccc1C2=O`: the T/C (dose: 1.56 mg/kg/injection, schedule: Q01DX009 (ip), vehicle: water) is 91 % of control and the T/C under setting [8] was 89 % of control.

Turning to `O=C(CCl)NC(Cc1ccc(N(CCCl)CCCl)cc1)C(=O)O` (centres undefined), the T/C reads like this: (dose: 0.25 mg/kg/injection, schedule: Q01DX009 (ip), vehicle: Klucel (hydroxypropylcellulose) (HPC)) 113 % of control and 96 % of control; (dose: 0.5 mg/kg/injection, schedule: Q01DX009 (ip), vehicle: Klucel (hydroxypropylcellulose) (HPC)) 109 % of control and 115 % of control; (dose: 1.0 mg/kg/injection, schedule: Q01DX009 (ip), vehicle: Klucel (hydroxypropylcellulose) (HPC)) 102 % of control and 115 % of control; (dose: 2.0 mg/kg/injection, schedule: Q01DX001 (ip), vehicle: Klucel (hydroxypropylcellulose) (HPC)) 107 % of control; (dose: 4.0 mg/kg/injection, schedule: Q01DX001 (ip), vehicle: Klucel (hydroxypropylcellulose) (HPC)) 108 % of control; (dose: 8.0 mg/kg/injection, schedule: Q01DX001 (ip), vehicle: Klucel (hydroxypropylcellulose) (HPC)) 119 % of control. Further, the T/C is 166 % of control (dose: 128.0 mg/kg/injection, schedule: Q01DX009 (ip), vehicle: Klucel (hydroxypropylcellulose) (HPC)) and 223 % of control (dose: 256.0 mg/kg/injection, schedule: Q01DX009 (ip), vehicle: Klucel (hydroxypropylcellulose) (HPC)).

Turning to `O=C(OCCN1CCN(CCCN2c3ccccc3Sc3ccc(C(F)(F)F)cc32)CC1)C12CC3CC(CC(C3)C1)C2`, the T/C is, setting by setting: (dose: 3.12 mg/kg/injection, schedule: Q01DX009 (ip), vehicle: Klucel (hydroxypropylcellulose) (HPC)) 105 % of control; under setting [2], 103 % of control and 96 % of control; under setting [3], 110 % of control and 112 % of control and 97 % of control; under setting [4], 112 % of control; (dose: 50.0 mg/kg/injection, schedule: Q01DX009 (ip), vehicle: Klucel (hydroxypropylcellulose) (HPC)) 113 % of control; (dose: 100.0 mg/kg/injection, schedule: Q01DX009 (ip), vehicle: Klucel (hydroxypropylcellulose) (HPC)) 118 % of control.
